Measured values: patent US20140303116A1, “CARNOSINE HYALURONIC ACID MIXTURES AND THEIR USE” (priority 2010, published 2014)

Experiments:
collagen III = collagen III expression in fibroblasts by Western blotting; format: cell-based; settings: fibroblasts exposed to 1.0 and 1.5% for 48 hours, beta-actin internal control
Procedure: The effect of solutions diluted to 1% and 1.5% and neutralized according to Example 4 on the production of collagen by fibroblasts treated with these solutions was verified.
The Western blotting technique was used to verify any production of collagen by the fibroblasts treated with L- and D-carnosine hyaluronate for 48 hours.
Fibroblast cultures were lysed with RIPA buffer at pH 7.4. Then, the samples were run onto a 10% SDS-polyacrylamide gel under reducing conditions. When the run has been completed, the proteins were transferred onto nitrocellulose membranes, incubated with anti-collagen III antibodies and then with the secondary antibody. […] The beta-actin expression was used as an internal control.

skin fibroblasts = experiment: scratch assay, migration of skin fibroblasts; format: cell-based; settings: 48 hours of treatment after scratching; doses of between 0.2 and 0.8%; mitomycin C pre-treated cells, DMEM with 10% FCS
Procedure: The solutions obtained from Examples 2 and 3 were used to prepare dilute […], and these solutions, whose pH initially changed from 3 to 1.5, were neutralized by the addition of NaOH.
The effect of the above solutions on the migration of skin fibroblasts was tested in vitro by means of a scratch assay. In this test, cells mimic cell migration during an in vivo tissue repair.
The method is based on scratch-wounding a confluent monolayer of cells so that the cells capable of migration are stimulated to cover the artificial gap in an attempt to re-establish new cell-to-cell contacts. […]
In this assay, the fibroblasts were scratch-wounded and then treated with the test substances at different concentrations. At 48 hours after treatment, cells were photographed and stained with crystal violet, and the migrated cells were counted under an optical microscope. […]
Cells were cultivated in DMEM with 10% FCS and treated with the dilute solutions of L-carnosine hyaluronate as described above for 48 hours after scratching. […] Cells were counted after staining with crystal violet.
Cells were cultivated in DMEM with 10% FCS and treated with the dilute solutions of D-carnosine hyaluronate as described above for 48 hours after scratching. […] Cells were counted after staining with crystal violet.

D-carnosine hyaluronate
collagen III synthesis vs control cells treated with saline (collagen III): synthesize more collagen III than control cells
migration of skin fibroblasts (migrated cell count) (skin fibroblasts): statistically significantly migrate

L-carnosine hyaluronate
collagen III synthesis vs control cells treated with saline (collagen III): synthesize more collagen III than control cells
migration of skin fibroblasts (migrated cell count) (skin fibroblasts): statistically significantly migrate
